Three compounds from ChEMBL document CHEMBL4354880, “Synthesis and Structure-Activity Relationships of Arylsulfonamides as AIMP2-DX2 Inhibitors for the Development of a Novel Anticancer Therapy” (J Med Chem, 2020) can be followed below.

Series [1] deals with T1, Aminoacyl tRNA synthase complex-interacting multifunctional protein 2 (Homo sapiens, UniProt Q13155).
T1 sequence (Q13155 whole entry): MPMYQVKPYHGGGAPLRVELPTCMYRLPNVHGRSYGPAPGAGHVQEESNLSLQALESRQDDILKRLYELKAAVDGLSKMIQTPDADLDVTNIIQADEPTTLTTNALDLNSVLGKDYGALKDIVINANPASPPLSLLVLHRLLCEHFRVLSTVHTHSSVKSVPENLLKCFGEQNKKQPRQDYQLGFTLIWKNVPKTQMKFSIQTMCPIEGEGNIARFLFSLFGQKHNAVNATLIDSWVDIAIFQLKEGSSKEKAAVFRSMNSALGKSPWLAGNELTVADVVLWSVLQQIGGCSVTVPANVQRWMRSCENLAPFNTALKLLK
The series can be described thus: Inhibition of nanoluciferase-tagged AIMP2 (unknown origin) expressed in human A549 cells measured after 4 hrs by luminescence assay. The class given is cell-based.

Series [2] concerns the target Aminoacyl tRNA synthase complex-interacting multifunctional protein 2 (Homo sapiens, UniProt Q13155). The series can be described thus: Inhibition of nanoluciferase-tagged AIMP2 DX2 isoform (unknown origin) expressed in human A549 cells measured after 4 hrs by luminescence assay. The class given is cell-based.
Series [3] in a line: Cytotoxicity against human WI26 cells assessed as reduction in cell viability measured after 72 hrs by MTT assay. In general terms: Tetrazolium assays rely on reduction of a dye to a coloured formazan, in cell work by metabolically active cells.
Series [4] has as its system A549. Nature of the series: cells. To be noted: Homo sapiens, A549, 72 h.
Description: Antiproliferative activity against human A549 cells measured after 72 hrs by MTT assay
The test system of series [5] is A549. The series can be described thus: Antiproliferative activity against human A549 cells stably expressing AIMP2 DX2 isoform measured after 72 hrs by MTT assay. Type of series: functional, cell-based.
The subject of series [6] is NCI-H460. Nature of the series: Antitumor activity against human H460 cells xenografted in BALB/c SLC nu/nu mouse assessed as reduction in tumor volume at 50 mg/kg, ip administered every other day for 15 days and measured 4 times during compound dosing. Type of series: functional, organism-based.
Series [7] relates to NCI-H460. The series can be described thus: Antitumor activity against human H460 cells xenografted in BALB/c SLC nu/nu mouse assessed as reduction in tumor weight at 50 mg/kg, ip administered every other day for 15 days and measured post-last dose. The class given is functional, organism-based. For orientation: In xenograft studies the graft and the host belong to different species.

The subject of series [8] is A549. To be noted: Homo sapiens, 5 uM.
Description: Inhibition of LgBiT-tagged PRKACA-SmBiT-tagged PRKAR2A (unknown origin) protein-protein interaction expressed in human A549 cells at 5 uM measured after 4 hrs by luminescence assay
Series [9] has as its system NCI-H460. Nature of the series: Cytotoxicity against human NCI-H460 3D spheroid cells assessed as reduction in cell viability measured after 72 hrs by Celltiter-glo assay. (In general: In ATP-based viability assays light output follows the ATP content of the culture.)
The nature of series [10]: Toxicity in human H460 cells xenografted BALB/c SLC nu/nu mouse assessed as change in body weight at 50 mg/kg, ip administered every other day for 15 days and measured 4 times during compound dosing. To be noted: in vivo, 360 h.

Active and inactive are the calls of the source. The calls are words filed in the database; no cut-off is given here.

Take `Cc1ccc(S(=O)(=O)N[C@@H](CC(C)C)C(=O)N2CCOCCOCCOCC2)cc1`: the results for the IC50 in [1] and in [2] were above 100 µM and 40.1 µM, respectively. Moreover, the values for the EC50 (in series [3]; with A549 [4]) were above 100 µM and 40.8 µM, respectively.
For `COc1ccc(-c2csc(NC(=O)[C@H](Cc3c[nH]c4ccccc34)NS(=O)(=O)c3ccc(C)cc3)n2)cc1`, the concentration giving a half-maximal response (EC50) in [3] is above 100 µM; in the series with A549 [4] it was 1.2 µM. Also, the outcome with A549 [5], with NCI-H460 [6] and in the series on NCI-H460 [7] was Active. In the series with A549 [8], the inhibition result is “inactive”. Besides, the Activity result with NCI-H460 [9] was “Dose-dependent effect”; in series [10], “Non-Toxic”.
In the case of `Cc1ccc(S(=O)(=O)N[C@@H](Cc2c[nH]c3ccccc23)C(=O)Nc2ccc(N3CCOCC3)cc2)cc1`, the EC50 is above 100 µM in [3] and 14.2 µM with A549 [4].

For orientation: IC50 means the concentration that inhibits the measured activity by half. As a reminder, the EC50 is the midpoint of the concentration-response curve.
